The source of these data is US20250361274A1, “PEPTIDE AND PEPTIDE-CONTAINING AGENT” (PEPTIDREAM INC., priority 2022, published 2025).

“Also recorded” adds a separate entry of the source. Numbered stars: 1 amine (or outer) side, 2 acyl side, 3 side chain; on linkers, the order of the positions; unused ones are H or OH. Bridge positions count the residues as written; N and C are the ends. Square brackets hold non-standard residues; d marks the D form. Peptide text beside a SMILES is read from it. ξ: configuration not given here. X2 = O=C(C[C@@H](Cc1ccc(-c2ccccc2)cc1)C(=O)[*:2])[C@@H]1CCCN1[*:1]; Phe(4-COOH) = N[C@@H](Cc1ccc(C(=O)O)cc1)C(=O)O; Bip = N[C@@H](Cc1ccc(-c2ccccc2)cc1)C(=O)O; Nle(6-COOH) = N[C@@H](CCCCC(=O)O)C(=O)O; X1 = N=C(CN)NCCC[C@H](N[*:1])C(=O)[*:2]; Ala(4-THP) = N[C@@H](CC1CCOCC1)C(=O)O; ξE = NC(CCC(=O)O)C(=O)O; βAla = NCCC(=O)O

Assay type in all cases: cell-based
In experiment [1] the target is T1, BMP4 (Homo sapiens, UniProt P12644).
T1 sequence (P12644 293-408): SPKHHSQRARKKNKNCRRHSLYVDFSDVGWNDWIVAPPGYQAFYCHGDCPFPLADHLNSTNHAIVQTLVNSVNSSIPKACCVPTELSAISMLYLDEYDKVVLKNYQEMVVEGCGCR
Briefly: BMP4 signal transduction inhibitory activity: SMAD1 phosphorylation by BMP4 stimulus, AlphaLISA SureFire, A549 cells.

In experiment [2] the target is T2, BMP2 (Homo sapiens, UniProt P12643).
T2 sequence (P12643 283-396): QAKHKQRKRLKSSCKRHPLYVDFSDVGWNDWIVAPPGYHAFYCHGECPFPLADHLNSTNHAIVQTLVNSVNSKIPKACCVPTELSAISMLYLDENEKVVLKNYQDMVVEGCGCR
Briefly: BMP family signal transduction inhibition (SMAD1 phosphorylation), BMP2 stimulus. The source says: (§1) In the present Example, BMP4 signal transduction inhibition peptide No. 177, peptide No. 29986 (SEQ ID NO: 277 (Example 8)), and peptide SEQ ID NO: 417 (Example 6) synthesized in Example 2, Example 8, and Example 6 were verified in the same manner as in Example 13 in order to confirm presence or absence of signal transduction inhibitory activities obtained by BMPs 2, 5, 6, 9, 12, and 14 belonging to the respective BMP families.
(§2) Regarding the concentrations of the respective BMPs in the evaluation, 0.3 nM of BMP2, 2 nM of BMP5, 3 nM of BMP6, 10 nM of BMP9 and BMP12, and 0.6 nM of BMP14 were added, followed by application of stimulus.
(§3) Regarding No. 177, the concentrations of the peptides were as follows. Specifically, eight concentrations of the peptides were used at a common ratio of 1/3 starting from 10 nM (BMP2), starting from 200 nM (BMP5), starting from 100 nM (BMP6), starting from 1,000 nM (BMP9 and BMP12), and starting from 60 nM (BMP14). The evaluation was performed in the same manner as in Example 11 except for the above points. Note that recombinant Human Noggin Protein (R&D) as a positive control was used at the same concentration as the peptide.
(§4) Regarding the peptide SEQ ID NO: 277 (Example 8), the concentrations of the peptides were as follows. […]

For experiment [3], the target named is T3, BMP5 (Homo sapiens, UniProt P22003).
T3 sequence (P22003 317-454): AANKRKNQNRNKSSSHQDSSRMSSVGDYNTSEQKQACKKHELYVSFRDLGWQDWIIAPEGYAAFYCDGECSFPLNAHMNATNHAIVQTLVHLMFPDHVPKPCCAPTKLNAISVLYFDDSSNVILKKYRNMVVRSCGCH
Put plainly: BMP family signal transduction inhibition (SMAD1 phosphorylation), BMP5 stimulus.
Description: as §1, §2, §3, §4

Turning to `CC(C)[C@@H]1NC(=O)[C@H](CCCNC(=N)N)NC(=O)[C@H](CCCCC(=O)O)NC(=O)CSC[C@@H](C(=O)NCCC(=O)NC(CCC(=O)O)C(=O)O)NC(=O)[C@H](CO)NC(=O)[C@H](Cc2ccc(C(=O)O)cc2)NC(=O)[C@H](Cc2ccc(C(=O)O)cc2)NC(=O)[C@H](Cc2ccc(O)cc2)NC(=O)[C@H](Cc2ccc(-c3ccccc3)cc2)CC(=O)[C@@H]2CCCN2C(=O)[C@H](Cc2ccc(O)cc2)NC(=O)[C@@H]2CCCN2C(=O)[C@H](Cc2ccc(-c3ccccc3)cc2)NC(=O)[C@H](CCCNC(=N)CN)NC(=O)[C@H](CC(=O)O)NC(=O)[C@H](CC2CCOCC2)NC(=O)[C@H](Cc2ccc(C(=O)O)cc2)NC1=O` (some centres unmarked) [SEQ ID No. 177] ({CH2CO}-[Nle(6-COOH)]RV[Phe(4-COOH)][Ala(4-THP)]D[X1][Bip]PY[X2]Y[Phe(4-COOH)][Phe(4-COOH)]SC[βAla][ξE]-OH; thioether N-16), the “BMP4 inhibitory activity (in words)” value in experiment [1] was “same level of the BMP4 inhibitory activity as Noggin; also recorded: signal transduction inhibitory activities of BMP4 and BMP7”. For the same compound, in experiment [1] (Table 2, eight concentrations, ratio 1/3 from 2 nM, A549 cells), the IC50 was found to be 0.053 nM. In addition, the “aLISA BMP4” value in experiment [1] (class of inhibition of SMAD1 phosphorylation by BMP4 stimulus, AlphaLISA, A549 cells) is listed as “A (showed an inhibitory activity of 50% or more in a zone to which the peptide was added to in an amount of 0.2 nM)”. For the same compound, in experiment [2], the “BMP2 signal transduction inhibitory activity (in words)” value is “signal transduction inhibitory activities of BMP2, BMP5, and BMP6”. The “BMP5 signal transduction inhibitory activity (in words)” value in experiment [3] was “signal transduction inhibitory activities of BMP2, BMP5, and BMP6”.

In general, IC50 refers to the point on the concentration scale where inhibition reaches its midpoint.
